Laboratory results as given in patent US20100249107A1, “Biomarkers for Alzheimer's Disease Progression” (priority 2006, published 2010).

Tested on: patients suffering from MCI
Assay: InDDEx (ENA713B IA07) clinical trial: conversion from MCI to AD
Type: in vivo, human
Source text: Introduction and summary. The purpose of this EXAMPLE is to describe genetic association studies identifying twenty-five (25) AD-associated mutations of the invention. Genome-wide analyses for genetic association studies have only become possible within the past two years. The Investigation Into Delay to Diagnosis of Alzheimer's Disease With Exelon (InDDex; ENA713B IA07) clinical trial followed patients suffering from MCI and given either Exelon (rivastigmine) at various doses or placebo and followed their conversion to AD.

For `CCN(C)C(=O)Oc1cccc([C@H](C)N(C)C)c1` [Exelon, rivastigmine], the “Converted to AD, %” value (All patients (enrolled in and completed the clinical study), Exelon arm n = 508) was 17.32% and the “Converted to AD, %” value (Genome scan population (consented for pharmacogenetic study and passed the 100K scan), Exelon arm n = 211) was 17.06%.
